These results are taken from ChEMBL document CHEMBL1139589, “In vitro antiproliferative activity against human colon cancer cell lines of representative 4-thiazolidinones. Part I” (Bioorg Med Chem Lett, 2005).

Each structure is given as a SMILES string. Where only a bound is given, the exact number is not on record here.

The target in test [1] is T1, Prostaglandin G/H synthase 1 (Homo sapiens, UniProt P23219). To be noted: at 10 µM.
Description: Percentage inhibition activity at a concentration of 10 uM against cyclooxygenase 1 with the compound dissolved in DMSO
In test [2] the target is T2, Prostaglandin G/H synthase 2 (Homo sapiens) (UniProt P35354).
T2 sequence (whole entry): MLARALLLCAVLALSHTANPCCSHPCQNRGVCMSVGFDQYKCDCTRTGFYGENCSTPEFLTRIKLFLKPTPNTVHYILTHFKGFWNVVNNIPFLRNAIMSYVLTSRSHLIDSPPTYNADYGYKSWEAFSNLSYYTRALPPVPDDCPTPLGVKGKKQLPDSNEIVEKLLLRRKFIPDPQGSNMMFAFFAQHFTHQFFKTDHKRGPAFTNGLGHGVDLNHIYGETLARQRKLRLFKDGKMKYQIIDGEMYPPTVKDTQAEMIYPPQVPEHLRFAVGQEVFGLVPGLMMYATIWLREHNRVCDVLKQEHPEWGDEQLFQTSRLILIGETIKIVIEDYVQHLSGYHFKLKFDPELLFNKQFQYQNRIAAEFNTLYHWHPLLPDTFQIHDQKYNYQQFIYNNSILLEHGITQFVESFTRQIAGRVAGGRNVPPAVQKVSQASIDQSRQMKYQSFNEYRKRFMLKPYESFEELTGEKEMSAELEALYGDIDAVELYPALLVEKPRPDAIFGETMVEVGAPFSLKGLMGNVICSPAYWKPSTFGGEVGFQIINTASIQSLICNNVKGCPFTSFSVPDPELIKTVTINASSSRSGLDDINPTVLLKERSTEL
To be noted: at 10 µM.
Description: Percentage inhibition activity at a concentration of 10 uM against cyclooxygenase 2 with the compound dissolved in DMSO

For test [3], the target named is T1, Prostaglandin G/H synthase 1. Description: In vitro inhibition activity against cyclooxygenase 1 with the compound dissolved in DMSO.
Test [4] has as its target T3, Prostaglandin G/H synthase 2 (Homo sapiens, UniProt P35354).
T3 sequence (P35354 whole entry): T2 sequence (whole entry)
The test can be described thus: In vitro inhibition activity against cyclooxygenase 2 with the compound dissolved in DMSO.

Test [5] in a line: Inhibition of growth of H630 cell line after 72 hours of exposure time with the compound dissolved in DMSO. It counts as functional, cell-based. To be noted: Homo sapiens, NCI-H630, 72 h.
A short description of test [6]: Inhibition of growth of H630 cell line after 96 hours of exposure time with the compound dissolved in DMSO. It counts as functional, cell-based. To be noted: Homo sapiens, NCI-H630, 96 h.
Test [7] deals with HT-29. Description: Inhibition of growth of HT-29 cell line after 72 hours of exposure time with the compound dissolved in DMSO. It counts as functional, cell-based. The note with it: Homo sapiens, HT-29, 72 h.
The test system of test [8] is HT-29. The test can be described thus: Inhibition of growth of HT-29 cell line after 96 hours of exposure time with the compound dissolved in DMSO. Format: functional, cell-based. To be noted: Homo sapiens, HT-29, 96 h.
The test system of test [9] is HCT-116. Description: Inhibition of growth of HCT116 cell line after 72 hours of exposure time with the compound dissolved in DMSO. It counts as functional, cell-based. To be noted: Homo sapiens, HCT-116, 72 h.
The nature of test [10]: Inhibition of growth of HCT116 cell line after 96 hours of exposure time with the compound dissolved in DMSO. The note with it: Homo sapiens, HCT-116, 96 h. It counts as functional, cell-based.
For test [11], the system named is HT-29. Description: Inhibition of growth of HT-29 cell line after 24+72 hours of exposure time with the compound dissolved in DMSO. It counts as functional, cell-based. To be noted: Homo sapiens, HT-29, 72 h.
Test [12] deals with HT-29. The test can be described thus: Inhibition of growth of HT-29 cell line after 72+72 hours of exposure time with the compound dissolved in DMSO. Format: functional, cell-based. To be noted: Homo sapiens, HT-29, 72 h.
For test [13], the system named is DLD-1. The test can be described thus: Inhibition of growth of DLD-1 cell line after 72 hours of exposure time with the compound dissolved in DMSO. It counts as functional, cell-based. The note with it: Homo sapiens, DLD-1, 72 h.
The test system of test [14] is HCT-8. Description: Inhibition of growth of HCT-8 cell line after 72 hours of exposure time with the compound dissolved in DMSO. It counts as functional, cell-based. To be noted: Homo sapiens, HCT-8, 72 h.
The subject of test [15] is HCT-8. Description: Inhibition of growth of HCT-8 cell line after 96 hours of exposure time with the compound dissolved in DMSO. Format: functional, cell-based. The note with it: Homo sapiens, HCT-8, 96 h.
In test [16] the test system is DLD-1. Description: Inhibition of growth of DLD-1 cell line after 24+72 hours of exposure time with the compound dissolved in DMSO. To be noted: Homo sapiens, DLD-1, 72 h. It counts as functional, cell-based.
Test [17] relates to DLD-1. Description: Inhibition of growth of DLD-1 cell line after 72+72 hours of exposure time with the compound dissolved in DMSO. The note with it: Homo sapiens, DLD-1, 72 h. It counts as functional, cell-based.
Test [18] in a line: Inhibition of growth of HCT116 cell line after 24+72 hours of exposure time with the compound dissolved in DMSO. It counts as functional, cell-based. The note with it: Homo sapiens, HCT-116, 72 h.
Test [19] can be described thus: Inhibition of growth of HCT116 cell line after 72+72 hours of exposure time with the compound dissolved in DMSO. The note with it: Homo sapiens, HCT-116, 72 h. It counts as functional, cell-based.
The test system of test [20] is DLD-1. The test can be described thus: Inhibition of growth of DLD-1 cell line after 96 hours of exposure time with the compound dissolved in DMSO. To be noted: Homo sapiens, DLD-1, 96 h. Format: functional, cell-based.

T1 sequence (P23219 whole entry): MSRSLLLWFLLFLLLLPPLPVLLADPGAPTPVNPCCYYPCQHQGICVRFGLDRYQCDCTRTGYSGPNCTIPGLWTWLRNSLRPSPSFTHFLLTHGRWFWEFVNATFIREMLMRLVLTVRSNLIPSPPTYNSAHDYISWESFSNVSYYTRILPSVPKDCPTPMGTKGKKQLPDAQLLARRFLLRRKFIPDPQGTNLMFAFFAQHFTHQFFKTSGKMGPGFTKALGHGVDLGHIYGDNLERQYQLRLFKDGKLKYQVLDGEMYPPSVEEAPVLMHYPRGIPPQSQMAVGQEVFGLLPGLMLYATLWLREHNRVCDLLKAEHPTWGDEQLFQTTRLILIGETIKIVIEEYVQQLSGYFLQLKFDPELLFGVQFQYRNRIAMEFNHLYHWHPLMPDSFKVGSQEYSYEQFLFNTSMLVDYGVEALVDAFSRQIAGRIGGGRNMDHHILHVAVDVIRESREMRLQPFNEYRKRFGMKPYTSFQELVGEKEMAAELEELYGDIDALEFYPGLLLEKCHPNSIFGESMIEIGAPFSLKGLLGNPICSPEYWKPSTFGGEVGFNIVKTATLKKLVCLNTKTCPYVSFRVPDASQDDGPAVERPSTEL

By inhibition is commonly meant how much of the control response was suppressed. As for `CCCN1C(=O)CS/C1=N/c1ccccc1`, the inhibition in test [1] stood at 8%; in [2], 0%.

What is called IC50 is the point on the concentration scale where inhibition reaches its midpoint. Higher therefore signals weaker potency. `COc1ccc(C2SCC(=O)N2CCN2C(=O)CSC2c2ccc(OC)cc2)cc1` (stereo not given): the concentration for half-maximal inhibition (IC50) amounted to 53.7 µM in [3] and 1.12 µM in test [4].

As for `CCCN1C(=O)/C(=C/c2cccc(OC)c2)S/C1=N/c1ccccc1`, the IC50 in test [5] was above 100 µM; in test [6] it was above 100 µM; in test [7], 64.1 µM; in test [8], 23.4 µM; in test [9], above 100 µM; in [10] it was 34.2 µM. In addition, the IC50 in test [11] was 92.8 µM; in test [12], 36.2 µM; in test [13] it was above 100 µM; in test [14] it was above 100 µM; in [15], above 100 µM; in [16] it was above 100 µM. The IC50 in test [17] is above 100 µM; in [18] it was above 100 µM; in test [19] it was above 100 µM; in [20], 13.1 µM. Also, the inhibition is 0% in [1] and 24% in test [2].

For the compound `O=C1NC(=O)/C(=C/c2cccc(C(F)(F)F)c2)S1`, the IC50 in test [5] amounted to 97.6 µM; in test [6], 83.2 µM; in test [7] it was 38.8 µM; in test [8], 59.7 µM; in [9], 48.8 µM; in test [10], 45.5 µM. The concentration for half-maximal inhibition (IC50) in test [11] is 71.7 µM; in test [12], 31.4 µM; in test [13], 37.4 µM; in test [14] it was 100 µM; in test [15], 82.2 µM; in test [16], 40.1 µM. Moreover, the concentration for half-maximal inhibition (IC50) in test [17] was found to be 31.4 µM; in [18], 91.7 µM; in [19], 36.8 µM; in test [20] it was 17.8 µM. The inhibition in test [1] and in test [2] was 0% throughout.
